Source: US12655106B2 (Eikonizo Therapeutics, Inc., priority 2021, dated 2026)

Tests used:
[1] = biological target: T1, Full length Human HDAC8 (Homo sapiens, UniProt Q9BY41); assay: Caliper endpoint assay for HDAC enzymatic activity (HDAC8); type: biochemical; conditions: in vitro enzymatic, 30 min pre-incubation, 1 μM substrate peptide
T1 construct: Full length Human HDAC8; HIS (N); host or cells: baculovirus expression system
T1 sequence (Q9BY41 1-377): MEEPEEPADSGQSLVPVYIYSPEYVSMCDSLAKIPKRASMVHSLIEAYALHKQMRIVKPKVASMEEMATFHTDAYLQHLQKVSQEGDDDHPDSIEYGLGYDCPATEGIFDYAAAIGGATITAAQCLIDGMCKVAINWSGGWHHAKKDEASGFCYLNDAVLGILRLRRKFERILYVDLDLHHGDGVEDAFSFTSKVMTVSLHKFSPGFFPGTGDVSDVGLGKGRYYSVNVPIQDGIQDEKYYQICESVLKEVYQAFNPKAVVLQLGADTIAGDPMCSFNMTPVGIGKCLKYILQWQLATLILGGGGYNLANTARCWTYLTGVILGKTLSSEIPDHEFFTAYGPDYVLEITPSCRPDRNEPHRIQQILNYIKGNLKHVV

[2] = biological target: T2, Full length Human HDAC6 (Homo sapiens, UniProt Q9UBN7); assay: Caliper endpoint assay for HDAC enzymatic activity (HDAC6); type: biochemical; conditions: for IC50: in vitro enzymatic, Caliper endpoint assay, 30 min pre-incubation, 1 μM substrate peptide; for Selectivity (6 v 8): ratio of HDAC8 IC50/HDAC6 IC50
T2 construct: Full length Human HDAC6; FLAG (C); host or cells: baculovirus expression system
T2 sequence (Q9UBN7 1-1215): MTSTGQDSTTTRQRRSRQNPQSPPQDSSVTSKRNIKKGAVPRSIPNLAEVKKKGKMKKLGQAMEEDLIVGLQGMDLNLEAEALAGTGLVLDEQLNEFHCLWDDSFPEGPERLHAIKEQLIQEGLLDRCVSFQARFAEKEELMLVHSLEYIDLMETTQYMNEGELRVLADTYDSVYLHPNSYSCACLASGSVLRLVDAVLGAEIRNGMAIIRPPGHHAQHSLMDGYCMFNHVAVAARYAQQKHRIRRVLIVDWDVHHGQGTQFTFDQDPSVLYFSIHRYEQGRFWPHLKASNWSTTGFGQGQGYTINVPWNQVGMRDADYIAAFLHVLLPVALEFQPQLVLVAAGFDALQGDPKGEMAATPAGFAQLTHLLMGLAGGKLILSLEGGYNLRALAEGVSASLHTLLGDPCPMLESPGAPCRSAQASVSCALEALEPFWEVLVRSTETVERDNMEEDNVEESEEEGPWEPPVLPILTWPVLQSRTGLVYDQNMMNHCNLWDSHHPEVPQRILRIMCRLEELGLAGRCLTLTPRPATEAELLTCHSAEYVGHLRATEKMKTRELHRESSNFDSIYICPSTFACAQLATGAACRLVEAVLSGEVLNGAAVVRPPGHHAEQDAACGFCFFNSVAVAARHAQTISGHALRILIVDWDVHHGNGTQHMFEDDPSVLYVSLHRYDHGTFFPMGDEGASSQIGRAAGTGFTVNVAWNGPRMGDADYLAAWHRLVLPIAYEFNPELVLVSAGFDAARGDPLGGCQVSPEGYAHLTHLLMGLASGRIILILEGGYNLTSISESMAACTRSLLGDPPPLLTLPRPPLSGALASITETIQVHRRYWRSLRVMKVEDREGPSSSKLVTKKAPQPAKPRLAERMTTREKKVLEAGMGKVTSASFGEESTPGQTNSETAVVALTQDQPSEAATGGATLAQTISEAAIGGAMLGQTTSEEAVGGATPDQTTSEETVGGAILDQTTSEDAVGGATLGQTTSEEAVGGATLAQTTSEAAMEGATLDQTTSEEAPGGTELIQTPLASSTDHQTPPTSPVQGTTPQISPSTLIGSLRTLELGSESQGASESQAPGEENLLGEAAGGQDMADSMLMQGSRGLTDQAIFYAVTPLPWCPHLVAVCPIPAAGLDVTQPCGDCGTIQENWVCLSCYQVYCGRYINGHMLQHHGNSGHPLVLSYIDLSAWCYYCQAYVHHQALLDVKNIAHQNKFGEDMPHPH

Row | Compound | IC50 [1] | IC50 [2] | Selectivity (6 v 8) [2]
1 | O=C(NO)c1cc(F)c2c(c1)CCN(C1CC3(CCCCN3C3CC3)C1)C2 (stereo not drawn) [Compound 353, 2-(5-cyclopropyl-5-azaspiro[3.5]nonan-2-yl)-8-fluoro-3,4-dihydro-1H-isoquinoline-6-carbohydroxamic acid] | 10 to 100 µM | 0.001 to 0.1 µM | IV (IV: >100-1000)
2 | CC(=O)N1CCCCC12CC(N1CCc3cc(C(=O)NO)cc(F)c3C1)C2 (stereo not drawn) [Compound 355, 2-(5-acetyl-5-azaspiro[3.5]nonan-2-yl)-8-fluoro-3,4-dihydro-1H-isoquinoline-6-carbohydroxamic acid] | 10 to 100 µM | 0.001 to 0.1 µM | V (V: >1000)
3 | O=C(NO)c1cc(F)c2c(c1)CCN(C1CCC3(COC3)C1)C2 (stereo not drawn) [Compound 387, 8-fluoro-2-(2-oxaspiro[3.4]octan-6-yl)-3,4-dihydro-1H-isoquinoline-6-carbohydroxamic acid] | 10 to 100 µM | 0.001 to 0.1 µM | IV (IV: >100-1000)
4 | O=C(NO)c1cc(F)c2c(c1)CCN(C1CCC3(CNC3)C1)C2 (stereo not drawn) [Compound 388, 8-fluoro-N-hydroxy-2-(2-azaspiro[3.4]octan-6-yl)-1,2,3,4-tetrahydroisoquinoline-6-carboxamide] | 10 to 100 µM | 0.001 to 0.1 µM | IV (IV: >100-1000)
5 | O=C(NO)c1cc(F)c2c(c1)CCN(C1CCC3(C1)CN(C1CC1)C3)C2 (stereo not drawn) [Compound 390, 2-(2-cyclopropyl-2-azaspiro[3.4]octan-6-yl)-8-fluoro-3,4-dihydro-1H-isoquinoline-6-carbohydroxamic acid] | 10 to 100 µM | 0.1 to 1 µM | III (III: >10-100)
6 | CC(=O)N1CC2(CCC(N3CCc4cc(C(=O)NO)cc(F)c4C3)C2)C1 (stereo not drawn) [Compound 391, 2-(2-acetyl-2-azaspiro[3.4]octan-6-yl)-8-fluoro-N-hydroxy-1,2,3,4-tetrahydroisoquinoline-6-carboxamide] | 10 to 100 µM | 0.001 to 0.1 µM | IV (IV: >100-1000)
7 | O=C(NO)c1cc(F)c2c(c1)CCN(C1CCC3(CCNCC3)C1)C2 (stereo not drawn) [Compound 416, 8-fluoro-N-hydroxy-2-(8-azaspiro[4.5]decan-2-yl)-1,2,3,4-tetrahydroisoquinoline-6-carboxamide] | 10 to 100 µM | 0.001 to 0.1 µM | IV (IV: >100-1000)
8 | O=C(NO)c1cc(F)c2c(c1)CCN(C1CCC3(CCN(C4CC4)CC3)C1)C2 (stereo not drawn) [Compound 418, N-2-(8-cyclopropyl-8-azaspiro[4.5]decan-2-yl)-8-fluoro-N-hydroxy-1,2,3,4-tetrahydroisoquinoline-6-carboxamide] | 1 to 10 µM | 0.001 to 0.1 µM | IV (IV: >100-1000)
9 | O=C(NO)c1cc(F)c2c(c1)CCN(C1CCC3(CC1)COC3)C2 [Compound 425, 8-fluoro-2-(2-oxaspiro[3.5]nonan-7-yl)-3,4-dihydro-1H-isoquinoline-6-carbohydroxamic acid] | 10 to 100 µM | 0.001 to 0.1 µM | V (V: >1000)
10 | O=C(NO)c1cc(F)c2c(c1)CCN(C1CCC3(CC1)C[S+]([O-])C3)C2 (stereo not drawn) [Compound 426, 8-fluoro-2-(2-oxo-2MA-thiaspiro[3.5]nonan-7-yl)-3,4-dihydro-1H-isoquinoline-6-carbohydroxamic acid] | > 100 µM | 0.001 to 0.1 µM | V (V: >1000)
11 | CC(=O)N1CC2(CCC(N3CCc4cc(C(=O)NO)cc(F)c4C3)CC2)C1 [Compound 429, 2-(2-acetyl-2-azaspiro[3.5]nonan-7-yl)-8-fluoro-3,4-dihydro-1H-isoquinoline-6-carbohydroxamic acid] | 10 to 100 µM | 0.001 to 0.1 µM | IV (IV: >100-1000)
12 | O=C(NO)c1cc(F)c2c(c1)CCN(C1CCC3(CC1)CN(Cc1ccccc1)C3)C2 [Compound 430, 2-(2-benzyl-2-azaspiro[3.5]nonan-7-yl)-8-fluoro-3,4-dihydro-1H-isoquinoline-6-carbohydroxamic acid] | 1 to 10 µM | 0.001 to 0.1 µM | IV (IV: >100-1000)
13 | O=C(NO)c1cc(F)c2c(c1)CCN(CC13CCC(CC1)C(=O)N3)C2 [Compound 461, 8-fluoro-2-[(3-oxo-2-azabicyclo[2.2.2]octan-1-yl)methyl]-3,4-dihydro-1H-isoquinoline-6-carbohydroxamic acid] | 1 to 10 µM | 0.001 to 0.1 µM | V (V: >1000)

Results, then the compound that gave them:

Row | IC50 [1] | IC50 [2] | Selectivity (6 v 8) [2] | Compound
14 | > 100 µM | 0.001 to 0.1 µM | V (V: >1000) | CN1CCCCC12CC(N1CCc3cc(C(=O)NO)cc(F)c3C1)C2 (stereo not drawn) [Compound 352, 8-fluoro-2-(5-methyl-5-azaspiro[3.5]nonan-2-yl)-3,4-dihydro-1H-isoquinoline-6-carbohydroxamic acid]
15 | 1 to 10 µM | 0.001 to 0.1 µM | IV (IV: >100-1000) | O=C(NO)c1cc(F)c2c(c1)CCN(C1CCC13CCNCC3)C2 (stereo not drawn) [Compound 357, 2-(7-azaspiro[3.5]nonan-3-yl)-8-fluoro-3,4-dihydro-1H-isoquinoline-6-carbohydroxamic acid]
16 | 1 to 10 µM | 0.001 to 0.1 µM | IV (IV: >100-1000) | CN1CCC2(CCC2N2CCc3cc(C(=O)NO)cc(F)c3C2)CC1 (stereo not drawn) [Compound 358, 8-fluoro-2-(7-methyl-7-azaspiro[3.5]nonan-3-yl)-3,4-dihydro-1H-isoquinoline-6-carbohydroxamic acid]
17 | 1 to 10 µM | 0.1 to 1 µM | III (III: >10-100) | O=C(NO)c1cc(F)c2c(c1)CCN(C1CCC13CCN(C1CC1)CC3)C2 (stereo not drawn) [Compound 359, 2-(7-cyclopropyl-7-azaspiro[3.5]nonan-3-yl)-8-fluoro-3,4-dihydro-1H-isoquinoline-6-carbohydroxamic acid]
18 | 10 to 100 µM | 0.001 to 0.1 µM | IV (IV: >100-1000) | CC(=O)N1CCC2(CCC2N2CCc3cc(C(=O)NO)cc(F)c3C2)CC1 (stereo not drawn) [Compound 360, 2-(7-acetyl-7-azaspiro[3.5]nonan-3-yl)-8-fluoro-3,4-dihydro-1H-isoquinoline-6-carbohydroxamic acid]
19 | > 100 µM | 0.001 to 0.1 µM | V (V: >1000) | CN1CC2(CCC(N3CCc4cc(C(=O)NO)cc(F)c4C3)C2)C1 (stereo not drawn) [Compound 389, 8-fluoro-2-(2-methyl-2-azaspiro[3.4]octan-6-yl)-3,4-dihydro-1H-isoquinoline-6-carbohydroxamic acid]
20 | 10 to 100 µM | 0.001 to 0.1 µM | IV (IV: >100-1000) | CN1CCC2(CCC(N3CCc4cc(C(=O)NO)cc(F)c4C3)C2)CC1 (stereo not drawn) [Compound 417, 8-fluoro-N-hydroxy-2-(8-methyl-8-azaspiro[4.5]decan-2-yl)-1,2,3,4-tetrahydroisoquinoline-6-carboxamide]
21 | 10 to 100 µM | 0.001 to 0.1 µM | IV (IV: >100-1000) | CC(=O)N1CCC2(CCC(N3CCc4cc(C(=O)NO)cc(F)c4C3)C2)CC1 (stereo not drawn) [Compound 419, 2-(8-acetyl-8-azaspiro[4.5]decan-3-yl)-8-fluoro-3,4-dihydro-1H-isoquinoline-6-carbohydroxamic acid]
22 | 10 to 100 µM | 0.001 to 0.1 µM | V (V: >1000) | CN1CC2(CCC(N3CCc4cc(C(=O)NO)cc(F)c4C3)CC2)C1 [Compound 427, 8-fluoro-2-(2-methyl-2-azaspiro[3.5]nonan-7-yl)-3,4-dihydro-1H-isoquinoline-6-carbohydroxamic acid]
